Results reported in patent US20060228706A1, “Methods of diagnosing and treating diabetes and insulin resistance” (Metabolex, Inc., priority 2002, published 2006).
“And” between values parts separate entries of the source, which are not always exact repeats. Equal values may be shown once.

Key:
3T3-L1 adipocytes = test: Glucose transport analysis in 3T3-L1 adipocytes (2-deoxyglucose uptake), cells not expressing hP2RY1; type: cell-based, murine; settings: basal glucose transport (no insulin), 2-MeSADP 1 μM for 6 hours, mean of 5 experiments
Experimental: (§1) In some instances another analysis called “glucose transport” was used. This involves over-expressing the gene in either differentiated 3T3-L1 adipocytes or differentiated L6 myotubes and then monitoring the ability of insulin to stimulate glucose transport into these two cell types. A recombinant adenovirus encoding the human gene tagged with a FLAG epitope tag was prepared essentially as described in Zhou et al., Proc. Nat. Acad. Sci. USA. 95:2509-2514 (1998). 3T3-L1 adipocytes or L6 myotubes were infected with recombinant adenovirus expressing the human gene. A virus expressing an irrelevant protein was used as the control. Twenty four hours post infection the cells are stimulated with increasing concentrations of insulin and glucose transport into the cells determined by the counting the accumulation of a radiolabelled glucose analog (2-deoxyglucose) essentially as described in Kotani et al., Mol. Cell. Biol. 18:6971-6982 (1998), Fujishiro et al., J. Biol. Chem. 276:19800-19806 (2001), Ross et al., Biochem. Biophys. Res. Commun. 302:354-358 (2003)

hP2RY1 [1] = biological target: T1, hP2RY1 (Homo sapiens, UniProt P47900); test: Glucose transport analysis in 3T3-L1 adipocytes over-expressing hP2RY1 (adenovirus); type: cell-based
T1 construct: expressed in transfected cells; host or cells: differentiated murine 3T3-L1 adipocytes (A2) or differentiated L6 myotubes (A4), infected with recombinant adenovirus
T1 sequence (P47900 whole entry): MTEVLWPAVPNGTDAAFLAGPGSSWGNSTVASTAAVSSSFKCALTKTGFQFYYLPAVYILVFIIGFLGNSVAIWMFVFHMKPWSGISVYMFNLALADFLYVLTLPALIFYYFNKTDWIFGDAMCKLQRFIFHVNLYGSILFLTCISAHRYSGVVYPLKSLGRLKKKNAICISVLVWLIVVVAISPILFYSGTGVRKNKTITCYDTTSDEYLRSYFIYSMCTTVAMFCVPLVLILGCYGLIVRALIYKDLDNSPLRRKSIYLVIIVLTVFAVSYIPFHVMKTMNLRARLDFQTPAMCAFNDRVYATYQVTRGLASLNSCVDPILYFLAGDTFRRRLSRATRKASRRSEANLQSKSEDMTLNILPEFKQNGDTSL
Experimental: as §1

L6 myotubes = test: Glucose transport analysis in L6 myotubes (2-deoxyglucose uptake), cells not expressing hP2RY1; type: cell-based; settings: basal glucose transport (no insulin), 2-MeSADP 1 μM for 6 hours
Experimental: as §1

hP2RY1 [2] = biological target: T1, hP2RY1; test: Glucose transport analysis in L6 myotubes over-expressing hP2RY1 (adenovirus); type: cell-based
Experimental: as §1

Fold Change 2 (Basal plus P2RY1 plus 2-MeSADP)/(Basal no P2RY1 no 2-MeSADP), Mean +/− SEM (n = 5) (hP2RY1 [1]; basal glucose transport (no insulin), hP2RY1-expressing 3T3-L1 adipocytes, 2-MeSADP 1 μM for 6 hours, mean of 5 experiments): 2.11 +/− 0.34
Fold Change 2 (Basal plus P2RY1 plus 2-MeSADP)/(Basal no P2RY1 no 2-MeSADP), Mean (n = 2) (hP2RY1 [2]; basal glucose transport (no insulin), hP2RY1-expressing L6 myotubes, 2-MeSADP 1 μM for 6 hours, mean of 2 experiments): 1.81
Fold Change 2 (Basal plus P2RY1 plus 2-MeSADP)/(Basal no P2RY1 no 2-MeSADP) (hP2RY1 [2]; basal glucose transport (no insulin), hP2RY1-expressing L6 myotubes, 2-MeSADP 1 μM for 6 hours, single experiments): 1.71 and 1.91
Compound: CSc1nc(N)c2ncn([C@@H]3O[C@H](COP(=O)(O)OP(=O)(O)O)[C@@H](O)[C@H]3O)c2n1 [2-MeSADP]
Fold Change 1 (Basal plus 2-MeSADP)/(Basal no 2-MeSADP), Mean +/− SEM (n = 5) (3T3-L1 adipocytes): 1.07 +/− 0.13
basal glucose transport, result in words (hP2RY1 [1]; 3T3-L1 adipocytes with or without hP2RY1): can be stimulated by a P2RY1 agonist but only when the hP2RY1 is expressed in the cells
Fold Change 1 (Basal plus 2-MeSADP)/(Basal no 2-MeSADP), Mean (n = 2) (L6 myotubes; mean of 2 experiments): 0.97
Fold Change 1 (Basal plus 2-MeSADP)/(Basal no 2-MeSADP) (L6 myotubes; single experiments): 0.99 and 0.95
basal glucose transport, result in words (hP2RY1 [2]; L6 myotubes with or without hP2RY1): can be stimulated by a P2RY1 agonist but only when the hP2RY1 is expressed in the cells
